Data published in ChEMBL document CHEMBL1152149 (Bioorg Med Chem Lett, 2008).
Counter-ions that a name gives are not always drawn. The source made the active and inactive calls. The rule behind the calls is not given here.

Columns and labels:
[1] = Binding affinity to influenza A virus A/chicken/Germany/27 H7N7 weybridge strain M2 ion channel expressed in Escherichia coli
[2] = test system: H2N2 subtype; type: functional, organism-based, Influenza A virus (A/Japan/305/1957(H2N2)); conditions: Influenza A virus, MDCK
[3] = Cytotoxicity against MDCK cells assessed as detectable alteration of normal cell morphology; type: cell-based, Canis lupus familiaris; conditions: dog, read-out: Activity
[4] = test system: Influenza B virus; type: functional, organism-based; conditions: B/Hong Kong/05/1972, MDCK
[5] = molecular target: Glutamate NMDA receptor; assay: Inhibition of NMDA receptor in rat cerebellar granule neurons assessed as glutamate-induced intracellular calcium increase; type: cell-based
[6] = molecular target: Glutamate NMDA receptor; assay: Inhibition of NMDA receptor in rat cerebellar granule neurons assessed as NMDA-induced intracellular calcium increase; type: cell-based

| SMILES | Kd [1] [µM] | EC50 [2] [µM] | MCC [3] [mM] | Activity [4] | IC50 [5] [µM] | IC50 [6] [µM] | EC50 [4] [µM] |
| --- | --- | --- | --- | --- | --- | --- | --- |
| CCC1(N)C2CC3CC(C2)CC1C3 (centres undefined) | 6.7 | < 1.9 | > 1.16 | inactive |  |  |  |
| CCCC1(N)C2CC3CC(C2)CC1C3 (centres undefined) | 8.71 | < 1.7 | > 1.09 | inactive | 258 | 61.3 |  |
| CC1(O)C2CC3CC(C2)CC1C3 (centres undefined) |  | 3 | > 1.51 | inactive | > 350 | > 350 |  |
| CC1(N)C2CC3CC(C2)CC1C3 (centres undefined) | 3.6 | 3.5 | > 1.24 | inactive | 306 | 64.4 |  |
| NC1C2CC3CC(C2)CC1C3 (centres undefined) | 2.36 | 2.8 | > 1.33 | inactive | > 350 | 219 |  |
| CCCC1(O)C2CC3CC(C2)CC1C3 (centres undefined) |  | < 2.1 | > 1.29 | inactive | > 350 | > 350 |  |
| NC12CC3CC(CC(C3)C1)C2 [AMANTADINE HYDROCHLORIDE] | 0.32 | 1.1 | > 1.33 | inactive |  |  |  |
| C1CCC2(NC1)C1CC3CC(C1)CC2C3 (centres undefined) | 0.39 | 1 | > 1.03 |  | 239 | 19 | 241 |
| C1CNC2(C1)C1CC3CC(C1)CC2C3 (centres undefined) | 1.16 | 1.8 | > 1.1 | inactive | 314 | 50.6 |  |
| CC1(F)C2CC3CC(C2)CC1C3 (centres undefined) | > 26 |  |  |  |  |  |  |
